Data taken from US10676471B2, “Cycloalkyl-linked diheterocycle derivatives” (Pfizer Inc., priority 2014, dated 2020).

System: BT20 Cell
Assay: Cancer Cell Lysate Total L-Glutamate Assay
Format: cell-based
Details: Homo sapiens, BT-20, 2 h, total L-glutamate in cell lysate, BT20 cells, 2 hour incubation with test compound
Procedure, shortened: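 BT20 and other cancer lines at ~80% confluence were given fresh L-glutamine-containing medium, then treated with serially diluted compound (0.5% DMSO) for 2 hours at 37° C. Washed cells were lysed by freeze-thaw and sonication. Lysate glutamate was measured via glutamate oxidase/HRP/50 μM Amplex Red fluorescence (ex 530-560, em 585 nm); IC50 by four-parameter logistic fit.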

| IC50 | Compound |
| --- | --- |
| 3 nM | CC(C)C(=O)Nc1ccc(C[C@H]2CC[C@@H](c3nnc(NC(=O)Cc4ccccn4)s3)C2)nn1 (single isomer, unassigned) [Example 78, 2-methyl-N-(6-{[(cis)-3-{5-[(pyridin-2-ylacetyl)amino]-1,3,4-thiadiazol-2-yl}cyclopentyl]methyl}pyridazin-3-yl)propanamide] |
| 1.1 nM | CCC(=O)Nc1ccc(C[C@@H]2CC[C@H](c3nnc(NC(=O)Cc4ccccn4)s3)C2)nn1 (single isomer, unassigned) [Example 79, N-(6-{[(cis)-3-{5-[(pyridin-2-ylacetyl)amino]-1,3,4-thiadiazol-2-yl}cyclopentyl]methyl}pyridazin-3-yl)propanamide] |
| 4.5 nM | O=C(Cc1ccccc1)Nc1ccc(C[C@H]2CC[C@@H](c3nnc(NC(=O)Cc4ccccn4)s3)C2)nn1 (single isomer, unassigned) [Example 81, 2-phenyl-N-(6-{[(cis)-3-{5-[(pyridin-2-ylacetyl)amino]-1,3,4-thiadiazol-2-yl}cyclopentyl]methyl}pyridazin-3-yl)acetamide] |
| 0.1 nM | O=C(Cc1ccccc1)Nc1ccc(C[C@@H]2CC[C@H](c3nnc(NC(=O)Cc4ccccn4)s3)C2)nn1 (single isomer, unassigned) [Example 82, 2-phenyl-N-(6-{[(cis)-3-{5-[(pyridin-2-ylacetyl)amino]-1,3,4-thiadiazol-2-yl}cyclopentyl]methyl}pyridazin-3-yl)acetamide] |
| 0.5 nM | O=C(Cc1ccccn1)Nc1nnc(C[C@@H]2CC[C@H](c3nnc(Nc4ncccn4)s3)C2)s1 (single isomer, unassigned) [Example 84, 2-(pyridin-2-yl)-N-[5-({(cis)-3-[5-(pyrimidin-2-ylamino)-1,3,4-thiadiazol-2-yl]cyclopentyl}methyl)-1,3,4-thiadiazol-2-yl]acetamide] |
| 8.2 nM | O=C(Cc1ccccn1)Nc1nnc(C[C@@H]2CC[C@@H](c3nnc(Nc4ccccn4)s3)C2)s1 (single isomer, unassigned) [Example 85, 2-(pyridin-2-yl)-N-[5-({3-[5-(trans)(pyridin-2-ylamino)-1,3,4-thiadiazol-2-yl]cyclopentyl}methyl)-1,3,4-thiadiazol-2-yl]acetamide] |
| 4.8 nM | O=C(Cc1ccccn1)Nc1nnc(C[C@H]2CC[C@@H](c3nnc(Nc4ccccn4)s3)C2)s1 (single isomer, unassigned) [Example 86, 2-(pyridin-2-yl)-N-[5-({(cis)-3-[5-(pyridin-2-ylamino)-1,3,4-thiadiazol-2-yl]cyclopentyl}methyl)-1,3,4-thiadiazol-2-yl]acetamide] |
| 3.9 nM | Cn1ccc(Nc2nnc([C@H]3CC[C@@H](Cc4nnc(NC(=O)Cc5ccccn5)s4)C3)s2)n1 (single isomer, unassigned) [Example 89, N-(5-{[(cis)-3-{5-[(1-methyl-1H-pyrazol-3-yl)amino]-1,3,4-thiadiazol-2-yl}cyclopentyl]methyl}-1,3,4-thiadiazol-2-yl)-2-(pyridin-2-yl)acetamide] |
| 1.3 nM | CCC(=O)Nc1ccc(C[C@@H]2CC[C@H](c3nnc(NC(=O)CCOC)s3)C2)nn1 (single isomer, unassigned) [Example 90, 3-methoxy-N-{5-[(cis)-3-{[6-(propanoylamino)pyridazin-3-yl]methyl}cyclopentyl]-1,3,4-thiadiazol-2-yl}propanamide] |
| 1.5 nM | CCC(=O)Nc1ccc(C[C@H]2CC[C@@H](c3nnc(NC(=O)Cc4ccn(C)n4)s3)C2)nn1 (single isomer, unassigned) [Example 91, N-(6-{[(cis)-3-(5-{[(1-methyl-1H-pyrazol-3-yl)acetyl]amino}-1,3,4-thiadiazol-2-yl)cyclopentyl]methyl}pyridazin-3-yl)propanamide] |
| 0.2 nM | CCC(=O)Nc1ccc(C[C@@H]2CC[C@H](c3nnc(NC(=O)Cc4ccn(C)n4)s3)C2)nn1 (single isomer, unassigned) [Example 92, N-(6-{[(cis)-3-(5-{[(1-methyl-1H-pyrazol-3-yl)acetyl]amino}-1,3,4-thiadiazol-2-yl)cyclopentyl]methyl}pyridazin-3-yl)propanamide] |
| 10.4 nM | CC(=O)Nc1nnc([C@H]2CC3(C[C@H](c4nnc(NC(C)=O)s4)C3)C2)s1 (single isomer, unassigned) [Example 93, N,N′-(spiro[3.3]heptane-2,6-diyldi-1,3,4-thiadiazole-5,2-diyl)diacetamide] |
| 0.3 nM | O=C(Cc1ccccn1)Nc1nnc([C@H]2CC3(C[C@H](c4nnc(NC(=O)Cc5ccccn5)s4)C3)C2)s1 (single isomer, unassigned) [Example 99, N,N′-(spiro[3.3]heptane-2,6-diyldi-1,3,4-thiadiazole-5,2-diyl)bis[2-(pyridin-2-yl)acetamide]] |
| 2.4 nM | CCNc1nnc([C@H]2C[C@@H](Cc3ccc(NC(=O)Cc4ccccc4)nn3)C2)s1 (single isomer, unassigned) [Example 100, N-[6-({cis-3-[5-(ethylamino)-1,3,4-thiadiazol-2-yl]cyclobutyl}methyl)pyridazin-3-yl]-2-phenylacetamide] |
| 339 nM | CCNc1nnc([C@@H]2CC[C@H](Cc3ccc(NC(=O)Cc4ccccn4)nn3)C2)s1 (single isomer, unassigned) [Example 101, N-[6-({(cis)-3-[5-(ethylamino)-1,3,4-thiadiazol-2-yl]cyclopentyl}methyl)pyridazin-3-yl]-2-(pyridin-2-yl)acetamide] |
| 2 nM | C[C@H](c1nnc(NC(=O)Cc2ccccn2)s1)[C@H]1C[C@@H](c2nnc(NC(=O)Cc3ccccn3)s2)C1 (single isomer, unassigned) [Example 102, 2-(pyridin-2-yl)-N-{5-[(1-(cis)-3-{5-[(pyridin-2-ylacetyl)amino]-1,3,4-thiadiazol-2-yl}cyclobutyl)ethyl]-1,3,4-thiadiazol-2-yl}acetamide] |
| 0.8 nM | C[C@@H](c1nnc(NC(=O)Cc2ccccn2)s1)[C@H]1C[C@@H](c2nnc(NC(=O)Cc3ccccn3)s2)C1 (single isomer, unassigned) [Example 103] |
| 8.6 nM | CC(C)C(=O)Nc1nnc(C[C@H]2C[C@@H](c3nnc(NC(=O)Cc4ccccn4)s3)C2)s1 (single isomer, unassigned) [Example 104, 2-methyl-N-{5-[(cis-3-{5-[(pyridin-2-ylacetyl)amino]-1,3,4-thiadiazol-2-yl}cyclobutyl)methyl]-1,3,4-thiadiazol-2-yl}propanamide] |
| 9.5 nM | CCC(=O)Nc1nnc([C@H]2C[C@@H](Cc3nnc(NC(=O)Cc4ccccn4)s3)C2)s1 (single isomer, unassigned) [Example 105, N-{5-[cis-3-({5-[(pyridin-2-ylacetyl)amino]-1,3,4-thiadiazol-2-yl}methyl)cyclobutyl]-1,3,4-thiadiazol-2-yl}propanamide] |
| 13.7 nM | CCC(=O)Nc1nnc([C@H]2C[C@H](Cc3nnc(NC(=O)Cc4ccccn4)s3)C2)s1 (single isomer, unassigned) [Example 106, N-{5-[trans-3-({5-[(pyridin-2-ylacetyl)amino]-1,3,4-thiadiazol-2-yl}methyl)cyclobutyl]-1,3,4-thiadiazol-2-yl}propanamide] |
| 10.1 nM | CC(=O)Nc1nnc(C[C@H]2C[C@@H](c3nnc(NC(=O)Cc4ccc(C)cn4)s3)C2)s1 (single isomer, unassigned) [Example 107, N-[5-(cis-3-{[5-(acetylamino)-1,3,4-thiadiazol-2-yl]methyl}cyclobutyl)-1,3,4-thiadiazol-2-yl]-2-(5-methylpyridin-2-yl)acetamide] |
| 0.3 nM | Cc1ccc(CC(=O)Nc2nnc(C[C@H]3C[C@@H](c4nnc(NC(=O)Cc5ccc(C)cn5)s4)C3)s2)nc1 (single isomer, unassigned) [Example 108, 2-(5-methylpyridin-2-yl)-N-(5-{[cis-3-(5-{[(5-methylpyridin-2-yl)acetyl]amino}-1,3,4-thiadiazol-2-yl)cyclobutyl]methyl}-1,3,4-thiadiazol-2-yl)acetamide] |
| 1.3 nM | Cc1ccc(CC(=O)Nc2nnc(C[C@H]3C[C@H](c4nnc(NC(=O)Cc5ccc(C)cn5)s4)C3)s2)nc1 (single isomer, unassigned) [Example 109, 2-(5-methylpyridin-2-yl)-N-(5-{[trans-3-(5-{[(5-methylpyridin-2-yl)acetyl]amino}-1,3,4-thiadiazol-2-yl)cyclobutyl]methyl}-1,3,4-thiadiazol-2-yl)acetamide] |
| 2.3 nM | O=C(Cc1ccccn1)Nc1ccc(C[C@@H]2CC[C@H](c3nnc(NC4CC4)s3)C2)nn1 (single isomer, unassigned) [Example 110, N-[6-({(cis)-3-[5-(cyclopropylamino)-1,3,4-thiadiazol-2-yl]cyclopentyl}methyl)pyridazin-3-yl]-2-(pyridin-2-yl)acetamide] |
| 1.2 nM | Cc1ccc(CC(=O)Nc2nnc(C[C@H]3C[C@@H](c4nnc(NC(=O)Cc5ccccn5)s4)C3)s2)nc1 (single isomer, unassigned) [Example 111, 2-(5-methylpyridin-2-yl)-N-{5-[(cis-3-{5-[(pyridin-2-ylacetyl)amino]-1,3,4-thiadiazol-2-yl}cyclobutyl)methyl]-1,3,4-thiadiazol-2-yl}acetamide] |
| 0.2 nM | Cc1ccc(CC(=O)Nc2nnc([C@H]3C[C@@H](Cc4nnc(NC(=O)Cc5ccccn5)s4)C3)s2)nc1 (single isomer, unassigned) [Example 112, 2-(5-methylpyridin-2-yl)-N-{5-[cis-3-({5-[(pyridin-2-ylacetyl)amino]-1,3,4-thiadiazol-2-yl}methyl)cyclobutyl]-1,3,4-thiadiazol-2-yl}acetamide] |
| 5.6 nM | CCNc1nnc([C@H]2C[C@H](Cc3ccc(NC(=O)Cc4ccccn4)nn3)C2)s1 (single isomer, unassigned) [Example 113, N-[6-({trans-3-[5-(ethylamino)-1,3,4-thiadiazol-2-yl]cyclobutyl}methyl)pyridazin-3-yl]-2-(pyridin-2-yl)acetamide] |
